Test results published in patent US20250236595A1 (priority 2020, published 2025).

Assays:
[1] = cited from earlier work
[2] = system: D-galactose-induced aging model; experiment: D-galactose-induced aging model, ovarian decline: estradiol and luteinizing hormone in serum (ELISA); assay type: in vivo, BALB/c female mice; conditions: female mice, D-galactose 200 mg/kg/d*42d; SPAM1 10 or 100 μmol/kg/d*28d i.p. from day 15; high dose more significant than low
Procedure: (§1) A D-galactose-induced aging model was used. Forty BALB/c female mice (SPF grade, 8-10 weeks old, weighing 22-27 g) were randomly divided into following 4 groups, with 10 mice in each group: 1) aging model group, injected with D-galactose (200 mg/kg/d*42d) subcutaneously at the neck or back; 2) SPAM1 low-dose treatment group, injected with D-galactose as in group 1), and injected with low-dose SPAM1 (10 μmol/kg/d*28d) intraperitoneally on day 15; 3) SPAM1 high-dose treatment group, injected with D-galactose as in group 1), and injected with high-dose SPAM1 (100 μmol/kg/d*28d) intraperitoneally on day 15; and 4) normal control group, injected with normal saline intraperitoneally instead of D-galactose and SPAM1; 24 h after the completion of all injections, blood was collected from the orbit, and the level of estradiol and luteinizing hormone in serum was assayed by the enzyme-linked immunosorbent assay (ELISA).

PACAP = experiment: Level of PACAP in serum of mice after intraperitoneal injection (ELISA kit); assay type: in vivo, BALb/c mice; conditions: SPAM1 10 and 100 μmol/kg intraperitoneal; blood 30 min after injection; vs normal saline control
Procedure: Thirty BALb/c mice (SPF grade, 8-10 weeks old, weighing 22-27 g, half female and half male) were randomly divided into following […], with 10 mice in each group: 1) SPAM1 low-dose group, intraperitoneal injection, 10 μmol/kg; 2) SPAM1 high-dose group, intraperitoneal injection, 100 μmol/kg; 3) normal control group, injected with normal saline intraperitoneally; 30 min after the injection, blood was collected from the orbit, and serum was assayed for PACAP using an ELISA kit.

LPS-induced sepsis model = experiment: LPS-induced sepsis model, survival; assay type: in vivo, BALB/c mice; conditions: SPAM1 10 or 100 μmol/kg i.p. 30 min before 15 mg/kg LPS at the tail vein; survival recorded for 8 days
Procedure: An LPS-induced sepsis model was used. Forty BALB/c mice (SPF grade, half male and half female, 8-10 weeks old, weighing 22-27 g) were randomly divided into following 4 groups, with 10 mice in each group: 1) sepsis model group, injected with normal saline intraperitoneally, and 30 min later, injected with 15 mg/kg LPS at the tail vein; 2) SPAM1 low-dose treatment group, injected with low-dose SPAM1 (10 μmol/kg) intraperitoneally, and 30 min later, injected with 15 mg/kg LPS at the tail vein; 3) SPAM1 high-dose treatment group, injected with high-dose SPAM1 (100 μmol/kg) intraperitoneally, and 30 min later, injected with 15 mg/kg LPS at the tail vein; and 4) normal control group, injected with normal saline intraperitoneally, and 30 min later, injected with normal saline at the tail vein; the survival of mice was observed every 24 h, and the survival rate of each group was recorded for 8 days.

corticosterone = experiment: Level of corticosterone (COR) in serum of mice after intraperitoneal injection (ELISA); assay type: in vivo, BALb/c mice; conditions: SPAM1 10, 100 and 1000 μmol/kg intraperitoneal; blood 1 h after injection; vs normal saline control
Procedure: Forty BALb/c mice (SPF grade, 8-10 weeks old, weighing 22-27 g, half female and half male) were randomly divided into following […], with 10 mice in each group: 1) SPAM1 low-dose group, intraperitoneal injection, 10 μmol/kg; 2) SPAM1 medium-dose group, intraperitoneal injection, 100 μmol/kg; 3) SPAM1 high-dose group, intraperitoneal injection, 1000 μmol/kg; 4) normal control group, injected with normal saline intraperitoneally; 1 h after the injection, blood was collected from the orbit, and the level of COR in serum was measured by the solid phase sandwich enzyme-linked immunosorbent assay (ELISA).

[3] = system: D-galactose-induced aging model; experiment: D-galactose-induced aging model, testicular decline: testosterone in serum (ELISA); assay type: in vivo, BALB/c male mice; conditions: male mice, D-galactose 200 mg/kg/d*42d; SPAM1 10 or 100 μmol/kg/d*28d i.p. from day 15; high dose more significant than low
Procedure: as §1, with “male” for “female”, “after” for “after the completion of”, “testosterone” for “estradiol and luteinizing hormone”

PAC1-R [4] = experiment: PAC1-R expression in Neuro2a cells, western blot with anti-PAC1-R (C-terminal) antibody; assay type: cell-based, Mouse; conditions: SPAM1 at 1 μM, 10 μM and 100 μM, incubated 1 h
Procedure: Mouse nerve cells Neuro2a naturally expressing the PAC1-R were cultured until the fusion rate was more than 80%, added with SPAM1 at 1 μM, 10 μM and 100 μM, and disrupted after being incubated for 1 h. The supernatant of the whole cell lysate was subjected to SDS-PAGE and the western blot assay using the anti-PAC1-R (C-terminal) antibody.

[5] = system: dexamethasone-induced thymus decline model; experiment: Dexamethasone-induced thymus decline model, thymus index; assay type: in vivo, BALB/c mice; conditions: dexamethasone 25 mg/kg/d*2d i.p.; SPAM1 10 or 100 μmol/kg/d*2d i.p. at the same time
Procedure: A dexamethasone-induced thymus decline model was used. Forty BALB/c mice (SPF grade, half male and half female, 8-10 weeks old, weighing 22-27 g) were randomly divided into following 4 groups, with 10 mice in each group: 1) aging model group, injected with dexamethasone (25 mg/kg/d*2d) intraperitoneally; 2) SPAM1 low-dose treatment group, injected with dexamethasone as in group 1), and injected with SPAM1 at a low dose (10 μmol/kg/d*2d) intraperitoneally at the same time; 3) SPAM1 high-dose treatment group, injected with dexamethasone as in group 1), and injected with SPAM1 at a high dose (100 μmol/kg/d*2d) intraperitoneally at the same time; and 4) normal control group, injected with normal saline intraperitoneally instead of dexamethasone and SPAM1; 24 h after the completion of the final injection, the mice were weighed and sacrificed by cervical dislocation method, the thymus of the mice was weighed, and the thymus index was calculated according to: thymus index=thymus weight (mg)/body weight (g).

PAC1-R [6] = experiment: PAC1-R expression in SHSY-5Y cells, confocal immunofluorescence; assay type: cell-based, Human; conditions: 100 μM SPAM1, incubated 1 h
Procedure: Human nerve cells SHSY-5Y naturally expressing the PAC1-R were cultured until the fusion rate was more than 80%, added with 100 μM SPAM1, and observed by confocal immunofluorescence after being incubated for 1 h.

PACAP38
in vivo half-life [1]: less than 2 min

O=C(CCCc1nc2ccccc2c(=O)[nH]1)NCc1ccc(C(=O)O)cc1
level of estradiol in serum of aging mice [2]: effectively up-regulated
level of luteinizing hormone in serum of aging mice [2]: effectively up-regulated
level of PACAP in serum (PACAP): effectively up-regulated the level of PACAP in serum and the up-regulation was concentration-dependent
death rate / survival rate in LPS-induced sepsis (LPS-induced sepsis model): effectively inhibited death caused by LPS-induced sepsis
level of COR in serum (corticosterone): increased the level of COR in a concentration-dependent manner
level of testosterone in serum of aging mice [3]: effectively up-regulated
expression of PAC1-R in nerve cells Neuro2a (western blot) (PAC1-R [4]): up-regulated the expression of PAC1-R in nerve cells in a concentration-dependent manner
thymus index (thymus weight (mg)/body weight (g)) [5]: effectively inhibited the dexamethasone-induced down-regulation of thymus index
red fluorescent signal targeting PAC1-R in SHSY-5Y cells (PAC1-R [6]): significantly up-regulated
